Experimental data taken from patent publication US11564920B2, “5-heteroaryl-1H-pyrazol-3-amine derivative” (Sumitomo Pharma Co., Ltd., priority 2020, dated 2023).
Entries after “also recorded” stand apart in the source; their conditions may differ.

Experiments:
[1] = target: T1, CHK1 (Homo sapiens (Human), UniProt O14757); experiment: CHK1 inhibitory activity test (IMAP TR-FRET); type: biochemical
[2] = test system: ES-2 cells; experiment: Cell growth suppression experiment; type: cell-based; conditions: for IC50: Homo sapiens, 48 h, cultured for 2 days, read-out: IC50 (cell growth suppression, ranking)
[3] = Pharmacokinetic test in mice; type: in vivo; conditions: female, BALB/c, mouse, whole blood, iv, liposome formulations, 1.0 mg/kg i.v., trapezoidal method
[4] = test system: Human bone marrow CD34 positive hematopoietic stem cells; experiment: Human bone marrow cell myeloid lineage differentiation induction test; type: cell-based; conditions: 3 nM
Description: Human bone marrow CD34 positive hematopoietic stem cells were obtained from Lonza K. K. The frozen cells were thawed in a […] fetal bovine serum containing IMDM medium and suspended in a Complete hemaTox® Myeloid Medium. 1000 cells were seeded per well in a 96-well plate. The evaluated compound was added so that the final concentration of DMSO would be […] and 3 nM, and the cells were cultured for 7 days at 37° C. in the presence of 5% CO2. After completion of culture, half of the amount of cell suspension was retrieved from each well. The luminescence was measured using CellTiter-Glo® 3D Reagent (Promega, G968B) to calculate the cell survival percentage by the following equation. Cell survival percentage (%)=(measurement value of luminescence after 7 days of evaluated compound)/(measurement value of luminescence after 7 days of control group)×100

[5] = target: T1, CHK1; experiment: Kinase selectivity test (HotSpot Full Panel Kinase profiling); type: biochemical; conditions: 100 nM, ATP 10 μM; read-out: Residual activity (%) CHK1
Description: (§1) Buffer: 20 mM HEPES, pH 7.5, 10 mM MgCl2, 2 mM […] (as needed), 1 mM EGTA, 0.02% Brij35, 0.02 mg/mL BSA, 0.1 mM Na3VO4, 2 mM DTT, 1% DMSO
(§2) Compound concentration: 100 nM

[6] = target: hERG current (Homo sapiens (Human), UniProt Q12809); experiment: hERG current blocking test; conditions: IC50 of hERG divided by IC50 of CHK1 inhibition of Test Example 1
Description: The test compounds were added to cultured hERG (human Ether-a-go-go Related Gene) gene stably expressing CHO cell line cells to achieve 0.27 to 100 μM.

[7] = target: ARKS/NUAK1 (Homo sapiens (Human), UniProt O60285); experiment: Kinase selectivity test (HotSpot Full Panel Kinase profiling); type: biochemical; conditions: 100 nM, ATP 10 μM; read-out: Residual activity (%) ARKS/NUAK1
Description: as §1, §2

[8] = target: BRSK1 (Homo sapiens (Human), UniProt Q8TDC3); experiment: as above; type: biochemical; conditions: 100 nM, ATP 10 μM; read-out: Residual activity (%) BRSK1
Description: as §1, §2

[9] = target: BRSK2 (Homo sapiens (Human), UniProt Q8IWQ3); experiment: as above; type: biochemical; conditions: 100 nM, ATP 10 μM; read-out: Residual activity (%) BRSK2
Description: as §1, §2

[10] = target: CAMK2D (Homo sapiens (Human), UniProt Q13557); experiment: as above; type: biochemical; conditions: 100 nM, ATP 10 μM; read-out: Residual activity (%) CAMK2D
Description: as §1, §2

[11] = target: CDK8/CYCLIN C (Homo sapiens (Human), UniProt P49336); experiment: as above; type: biochemical; conditions: 100 nM, ATP 10 μM; read-out: Residual activity (%) CDK8/CYCLIN C
Description: as §1, §2

[12] = target: CHK2 (Homo sapiens (Human), UniProt O96017); experiment: as above; type: biochemical; conditions: 100 nM, ATP 10 μM; read-out: Residual activity (%) CHK2
Description: as §1, §2

[13] = target: LOK/STK10 (Homo sapiens (Human), UniProt O94804); experiment: as above; type: biochemical; conditions: 100 nM, ATP 10 μM; read-out: Residual activity (%) LOK/STK10
Description: as §1, §2

[14] = target: MARK1 (Homo sapiens (Human), UniProt Q9P0L2); experiment: as above; type: biochemical; conditions: 100 nM, ATP 10 μM; read-out: Residual activity (%) MARK1
Description: as §1, §2

[15] = target: MARK2/PAR-1BA (Homo sapiens (Human), UniProt Q7KZI7); experiment: as above; type: biochemical; conditions: 100 nM, ATP 10 μM; read-out: Residual activity (%) MARK2/PAR-1BA (PAR-18A in Table 33)
Description: as §1, §2

[16] = target: MARK3 (Homo sapiens (Human), UniProt P27448); experiment: as above; type: biochemical; conditions: 100 nM, ATP 10 μM; read-out: Residual activity (%) MARK3
Description: as §1, §2

[17] = target: GLK/MAP4K3 (Homo sapiens (Human), UniProt Q8IVH8); experiment: as above; type: biochemical; conditions: 100 nM, ATP 10 μM; read-out: Residual activity (%) GLK/MAP4K3
Description: as §1
(§3) ATP conversion rate in 2 hours: 5 to 20%
as §2

[18] = target: MEK5 (Homo sapiens (Human), UniProt Q13163); experiment: as above; type: biochemical; conditions: 100 nM, ATP 10 μM; read-out: Residual activity (%) MEK5
Description: as §1, §3, §2

T1 sequence (O14757 whole entry): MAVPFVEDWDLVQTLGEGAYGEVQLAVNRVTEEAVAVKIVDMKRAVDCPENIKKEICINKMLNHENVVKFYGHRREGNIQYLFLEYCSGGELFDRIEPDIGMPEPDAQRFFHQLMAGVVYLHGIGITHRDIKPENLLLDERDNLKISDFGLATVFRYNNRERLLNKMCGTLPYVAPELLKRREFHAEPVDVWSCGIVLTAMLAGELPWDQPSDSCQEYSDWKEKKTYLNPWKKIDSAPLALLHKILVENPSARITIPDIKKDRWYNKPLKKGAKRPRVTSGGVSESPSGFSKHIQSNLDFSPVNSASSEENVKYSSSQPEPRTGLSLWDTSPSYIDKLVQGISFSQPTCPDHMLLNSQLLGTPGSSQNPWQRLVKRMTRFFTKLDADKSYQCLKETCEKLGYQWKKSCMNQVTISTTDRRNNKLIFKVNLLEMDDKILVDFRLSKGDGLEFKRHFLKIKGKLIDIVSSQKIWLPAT
Sequence of MARK2/PAR-1BA (Q7KZI7 other isoform, or with tags, fused parts or gaps isoform Q7KZI7-4): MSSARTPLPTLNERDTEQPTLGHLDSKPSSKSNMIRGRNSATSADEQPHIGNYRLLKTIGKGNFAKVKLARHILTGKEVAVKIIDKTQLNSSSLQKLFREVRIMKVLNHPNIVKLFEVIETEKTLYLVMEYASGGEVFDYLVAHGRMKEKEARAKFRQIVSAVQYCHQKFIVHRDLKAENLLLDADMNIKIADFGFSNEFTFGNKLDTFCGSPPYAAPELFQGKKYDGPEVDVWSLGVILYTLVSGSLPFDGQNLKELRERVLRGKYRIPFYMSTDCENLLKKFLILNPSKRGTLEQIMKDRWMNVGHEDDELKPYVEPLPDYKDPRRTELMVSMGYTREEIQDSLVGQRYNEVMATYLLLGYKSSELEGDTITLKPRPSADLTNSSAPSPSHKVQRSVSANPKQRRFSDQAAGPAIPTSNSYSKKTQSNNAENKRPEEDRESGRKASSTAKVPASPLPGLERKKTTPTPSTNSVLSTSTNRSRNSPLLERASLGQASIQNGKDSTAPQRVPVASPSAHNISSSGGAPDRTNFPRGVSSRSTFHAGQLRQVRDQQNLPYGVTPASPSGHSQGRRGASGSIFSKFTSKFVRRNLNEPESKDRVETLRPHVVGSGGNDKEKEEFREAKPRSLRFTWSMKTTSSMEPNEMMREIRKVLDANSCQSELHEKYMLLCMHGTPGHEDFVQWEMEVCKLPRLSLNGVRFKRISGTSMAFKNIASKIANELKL
Sequence of CHK2 (O96017 whole entry): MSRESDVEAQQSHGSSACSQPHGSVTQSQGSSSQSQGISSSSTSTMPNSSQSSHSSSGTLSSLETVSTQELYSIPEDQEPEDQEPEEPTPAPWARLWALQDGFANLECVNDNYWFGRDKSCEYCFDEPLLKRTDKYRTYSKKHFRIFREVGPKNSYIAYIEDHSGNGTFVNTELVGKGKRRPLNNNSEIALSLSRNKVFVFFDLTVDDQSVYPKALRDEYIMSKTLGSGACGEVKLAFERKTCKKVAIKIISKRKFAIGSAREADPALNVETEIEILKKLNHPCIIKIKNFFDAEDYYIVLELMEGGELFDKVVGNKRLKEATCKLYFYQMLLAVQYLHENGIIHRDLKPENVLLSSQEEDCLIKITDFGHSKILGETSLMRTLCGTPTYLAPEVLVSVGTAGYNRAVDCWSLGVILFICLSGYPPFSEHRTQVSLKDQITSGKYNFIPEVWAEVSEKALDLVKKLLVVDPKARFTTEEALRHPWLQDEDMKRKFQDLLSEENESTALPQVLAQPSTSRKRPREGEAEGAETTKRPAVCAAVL
Sequence of BRSK1 (Q8TDC3 whole entry): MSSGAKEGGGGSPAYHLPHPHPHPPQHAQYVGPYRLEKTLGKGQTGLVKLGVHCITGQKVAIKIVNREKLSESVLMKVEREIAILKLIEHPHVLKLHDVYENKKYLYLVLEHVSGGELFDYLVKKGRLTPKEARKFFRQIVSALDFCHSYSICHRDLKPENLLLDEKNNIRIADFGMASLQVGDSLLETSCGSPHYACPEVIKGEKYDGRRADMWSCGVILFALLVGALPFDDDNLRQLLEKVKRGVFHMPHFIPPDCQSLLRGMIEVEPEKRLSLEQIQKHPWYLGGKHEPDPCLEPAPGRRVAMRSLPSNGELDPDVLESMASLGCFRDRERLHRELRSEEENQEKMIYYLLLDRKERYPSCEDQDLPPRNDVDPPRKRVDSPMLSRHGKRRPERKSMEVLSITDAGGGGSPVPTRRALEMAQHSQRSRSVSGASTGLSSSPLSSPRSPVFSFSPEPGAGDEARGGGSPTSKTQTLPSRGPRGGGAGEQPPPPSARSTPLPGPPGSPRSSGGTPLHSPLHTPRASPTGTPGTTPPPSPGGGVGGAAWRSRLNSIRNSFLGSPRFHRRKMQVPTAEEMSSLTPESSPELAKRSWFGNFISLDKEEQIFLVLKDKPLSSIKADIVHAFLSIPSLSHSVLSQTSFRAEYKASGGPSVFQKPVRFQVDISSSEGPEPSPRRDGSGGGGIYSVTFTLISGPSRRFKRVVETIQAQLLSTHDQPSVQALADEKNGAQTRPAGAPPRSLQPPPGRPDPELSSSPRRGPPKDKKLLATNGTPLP
Sequence of GLK/MAP4K3 (Q8IVH8 whole entry): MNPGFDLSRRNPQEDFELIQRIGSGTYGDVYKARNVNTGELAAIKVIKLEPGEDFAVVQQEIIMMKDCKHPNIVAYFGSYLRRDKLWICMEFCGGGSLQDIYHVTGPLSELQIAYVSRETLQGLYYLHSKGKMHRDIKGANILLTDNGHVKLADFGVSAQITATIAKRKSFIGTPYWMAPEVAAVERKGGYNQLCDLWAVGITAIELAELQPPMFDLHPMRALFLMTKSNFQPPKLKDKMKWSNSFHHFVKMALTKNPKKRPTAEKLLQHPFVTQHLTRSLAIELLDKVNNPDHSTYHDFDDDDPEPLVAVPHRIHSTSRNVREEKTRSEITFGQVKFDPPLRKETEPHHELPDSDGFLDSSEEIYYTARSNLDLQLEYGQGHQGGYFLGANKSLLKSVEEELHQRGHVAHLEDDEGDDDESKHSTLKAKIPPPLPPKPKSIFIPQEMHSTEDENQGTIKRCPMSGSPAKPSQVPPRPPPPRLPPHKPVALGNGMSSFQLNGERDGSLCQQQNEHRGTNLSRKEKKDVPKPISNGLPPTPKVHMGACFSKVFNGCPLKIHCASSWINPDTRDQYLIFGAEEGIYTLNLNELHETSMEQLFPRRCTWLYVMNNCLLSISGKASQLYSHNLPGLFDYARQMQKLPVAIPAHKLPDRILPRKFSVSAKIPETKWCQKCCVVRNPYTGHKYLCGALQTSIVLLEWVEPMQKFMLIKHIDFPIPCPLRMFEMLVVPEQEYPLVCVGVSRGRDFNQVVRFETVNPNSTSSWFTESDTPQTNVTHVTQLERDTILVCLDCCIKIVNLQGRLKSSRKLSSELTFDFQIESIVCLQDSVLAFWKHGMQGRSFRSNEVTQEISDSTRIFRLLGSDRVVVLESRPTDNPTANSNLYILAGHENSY
Sequence of hERG current (Q12809 whole entry): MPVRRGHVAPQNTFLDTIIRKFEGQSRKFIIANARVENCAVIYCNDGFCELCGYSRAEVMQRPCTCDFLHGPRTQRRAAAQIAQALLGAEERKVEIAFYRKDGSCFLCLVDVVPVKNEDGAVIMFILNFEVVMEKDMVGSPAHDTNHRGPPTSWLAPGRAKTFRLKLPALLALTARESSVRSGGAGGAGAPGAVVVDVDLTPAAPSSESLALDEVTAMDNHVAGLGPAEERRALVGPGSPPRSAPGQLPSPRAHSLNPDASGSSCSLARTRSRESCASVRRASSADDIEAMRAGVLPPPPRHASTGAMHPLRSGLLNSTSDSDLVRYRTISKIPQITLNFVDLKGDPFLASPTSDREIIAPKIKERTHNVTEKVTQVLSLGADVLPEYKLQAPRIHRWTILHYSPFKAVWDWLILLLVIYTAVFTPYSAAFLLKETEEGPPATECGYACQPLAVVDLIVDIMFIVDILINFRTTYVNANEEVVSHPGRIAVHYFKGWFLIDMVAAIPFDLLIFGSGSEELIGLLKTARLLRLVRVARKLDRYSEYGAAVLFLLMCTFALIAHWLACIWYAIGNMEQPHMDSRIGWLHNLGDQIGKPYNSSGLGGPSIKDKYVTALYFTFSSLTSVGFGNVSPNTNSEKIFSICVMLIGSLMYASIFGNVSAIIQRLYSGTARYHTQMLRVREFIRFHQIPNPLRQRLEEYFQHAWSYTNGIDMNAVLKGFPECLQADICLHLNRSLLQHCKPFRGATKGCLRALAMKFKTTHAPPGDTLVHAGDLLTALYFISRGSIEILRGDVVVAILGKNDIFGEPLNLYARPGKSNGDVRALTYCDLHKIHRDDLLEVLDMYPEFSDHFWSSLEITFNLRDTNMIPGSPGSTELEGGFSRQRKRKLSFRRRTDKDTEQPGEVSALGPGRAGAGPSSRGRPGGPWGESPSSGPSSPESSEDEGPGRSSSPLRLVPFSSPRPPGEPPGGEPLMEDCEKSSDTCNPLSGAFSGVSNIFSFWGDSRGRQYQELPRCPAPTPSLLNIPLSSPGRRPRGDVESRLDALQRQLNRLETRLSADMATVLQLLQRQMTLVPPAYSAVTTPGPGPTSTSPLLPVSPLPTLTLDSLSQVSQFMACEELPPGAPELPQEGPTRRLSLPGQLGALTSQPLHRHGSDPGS
Sequence of MEK5 (Q13163 whole entry): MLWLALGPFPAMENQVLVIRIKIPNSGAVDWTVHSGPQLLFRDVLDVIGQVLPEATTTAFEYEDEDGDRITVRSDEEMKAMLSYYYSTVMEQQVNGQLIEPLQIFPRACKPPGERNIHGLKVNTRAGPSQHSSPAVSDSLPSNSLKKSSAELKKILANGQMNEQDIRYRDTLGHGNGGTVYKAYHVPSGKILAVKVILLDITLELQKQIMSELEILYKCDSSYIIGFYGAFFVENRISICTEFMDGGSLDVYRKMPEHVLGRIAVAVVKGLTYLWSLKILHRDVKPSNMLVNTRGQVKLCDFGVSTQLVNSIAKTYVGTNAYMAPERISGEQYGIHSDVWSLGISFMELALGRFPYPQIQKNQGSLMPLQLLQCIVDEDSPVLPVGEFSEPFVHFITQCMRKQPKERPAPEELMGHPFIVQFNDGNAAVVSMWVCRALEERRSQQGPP

Question: Which “CHK1 inhibitory activity relative to prexasertib” value [1] does the source give for `COc1ccnc(OCCCN)c1-c1cc(Nc2cnc(C#N)cn2)n[nH]1` [Example 1, 5-({5-[2-(3-aminopropoxy)-4-methoxypyridin-3-yl]-1H-pyrazol-3-yl}amino)pyrazine-2-carbonitrile] here?
Answer: ≥ 5 fold

Question: What about the IC50 [1] of the same compound?
Answer: < 0.0001 µM

Question: And the “effect of suppressing CHK1 activity (in words)” value ([1]; compared with prexasertib)?
Answer: more potent effect of suppressing CHK1 activity than prexasertib; also recorded: especially potently suppressing CHK1 activity

Question: What about the inhibition at 0.0001 µM ([1]; read-out: CHK1 inhibition % at 0.1 nM) of the same compound?
Answer: 55%

Question: What about the IC50 [2] of the same compound?
Answer: < 0.03 µM

Question: And the “cell growth suppression effect (in words)” value ([2]; compared with prexasertib)?
Answer: excellent cell growth suppression effect that is equivalent to that of prexasertib

Question: And the AUC(0-t) [3]?
Answer: 447 µg·h/mL

Question: What about the “effect on myeloid cells induced to differentiate from human bone marrow cells (in words)” value [4] of the same compound?
Answer: does not exhibit an effect of suppressing myeloid cells induced to differentiate from human bone marrow cells

Question: And the remaining activity at 0.1 µM [5]?
Answer: 2.87%

Question: What about the hERG/CHK1 [6] of the same compound?
Answer: >115000

Question: With `COc1cccc(OCCCN)c1-c1cc(Nc2cnc(C#N)cn2)n[nH]1` [Prexasertib, reference compound] as the compound, how does the IC50 [2] read?
Answer: < 0.03 µM

Question: What about the AUC(0-t) [3] of the same compound?
Answer: 236 µg·h/mL

Question: And the “effect on myeloid cells induced to differentiate from human bone marrow cells (in words)” value [4]?
Answer: exhibited an effect of suppressing myeloid cells induced to differentiate from human bone marrow cells

Question: What about the remaining activity at 0.1 µM [7] of the same compound?
Answer: 17.9%

Question: And the remaining activity at 0.1 µM [8]?
Answer: 21.7%

Question: What about the remaining activity at 0.1 µM [9] of the same compound?
Answer: 14.4%

Question: What about the remaining activity at 0.1 µM [10] of the same compound?
Answer: 6.07%

Question: And the remaining activity at 0.1 µM [11]?
Answer: 18.1%

Question: What about the remaining activity at 0.1 µM [12] of the same compound?
Answer: 6.41%

Question: And the remaining activity at 0.1 µM [13]?
Answer: 6.15%

Question: What about the remaining activity at 0.1 µM [14] of the same compound?
Answer: 14.1%

Question: What about the remaining activity at 0.1 µM [15] of the same compound?
Answer: 14.3%

Question: What about the remaining activity at 0.1 µM [16] of the same compound?
Answer: 12.6%

Question: What about the remaining activity at 0.1 µM [17] of the same compound?
Answer: 20.8%

Question: And the remaining activity at 0.1 µM [18]?
Answer: 10.7%
